One experiment concerns mice. Kind of experiment: Tail suspension test. The settings on record: injected for 4 days in doses of 0.05 mg/kg; 6 minutes test. Type of experiment: in vivo. The method, then:
Mice behavior in tail suspension test. Mice were suspended by tail with scotch tape on holder over horizontal surface at a height of about 40 cm, and for 6 minutes the total duration of complete immobility episodes which is considered to be a measure of depressively-like state was registered. Automated computerized detection of motion with videosystem and Any-maze programm were used in test. […] This testifies the decreasing of time of a depressively-like state.

A further experiment concerns male mice of BALB/c line. Briefly: Passive Avoidance of mice in the Shuttle Chamber, memory disturbed by Scopolamine. The settings on record: 0.2 mg/kg, 30 minutes before training; retention after 24 hours. Type of experiment: in vivo. The method, then: 18.1.1. […] Experiments were carried out in aged male mice of BALB/c line weighing 20-25 grams or male rats of Vistar line weighing 200-250 g. A shuttle chamber (Ugo Basile, Italy) consisted of two sections was used. […] The sections were connected through a hole which could be overlapped by vertical door. The floor of the dark section was made of transverse metal bars on which DC current impulses could be fed. On the first day of experiment 30 minutes before training mice were injected […] with Scopolamine which causes memory disturbance. The animals of trial group were additionally injected with a compound of the general formula 1, for example, compound 1.1.1(4).HCl or 1.2.1(3).HCl, in doses of 0.2 mg/kg. The animals of control group were injected with physiological solution. Each group consisted of 8 animals. The animals were placed in the light section, and latent period of the first entry into the dark chamber was registered. Then the vertical door was closed and the animal was punished by 0.6 mA DC current for 3 seconds. After that the animal was taken back to its home cage. In 24 hours the same animal was placed again in the light section of the shuttle chamber and latent period of its first entry into the dark section, the total time of its stay in the light section and the number of entries into dark section was registered. Each monitoring lasted for 5 minutes. […]

Experiment [1] addresses T1, recombinant human 5-HT6 receptor (Homo sapiens, UniProt P50406).
T1 construct: host or cells: HEK 293 cells with tetracycline-induced T-Rex system (Invitrogen)
Kind of experiment: Antagonistic activity towards serotonin 5-HT6 receptors, cAMP cell function experiment. Type of experiment: cell-based. The settings on record: HEK 293 cells expressing recombinant human 5-HT6 receptor; cAMP response to 10 μM serotonin; read-out: IC50, ability to block serotonin 5-HT6 receptors in the setting of cell function experiments. The procedure:
Determination of antagonistic activity of substituted 8-sulfonyl-2,3,4,5-tetrahydro-1H-γ-carbolines of the general formula 1 towards serotonin 5-HT6 receptors. HEK 293 cells with tetracycline-induced T-Rex system (Invitrogen, USA) consistently expressing recombinant human 5-HT6 receptor, production of Etogen Scientific (USA), were used. The cells were grown in DMEM/10% FBS/1% AAS medium with Blasticidine S and Zeocin (both—Invitrogen, USA). According to the method worked up by the producer of T-Rex system tetracycline hydrochloride was added to the medium with the cells for the purpose of activation of 5-HT6 receptor expression. The cells were embedded in 96-well plates (30,000-40,000 cells per well) and incubated in 5%-CO2 incubator at 37° C. for 24 hs. Before experiments cells medium was replaced by Hank's balanced salt solution (HBSS), comprising 0.137 M NaCl, 5.4 mM KCl, 0.25 mM Na2HPO4, 0.44 mM KH2PO4, 1.3 mM CaCl2, 1.0 mM MgSO4, 5 mM HEPES (pH 7.4), 0.05% BSA and 1 mM IBMX. The tested compounds of general formula 1 were added to the cells in various concentrations. After incubation of the cells for 15 min at room temperature serotonin was added to them up to final concentration of 10 μM and incubation was continued for 30 min. The newly formed cAMP was determined by reagent kit LANCE cAMP Kit, according to the method described by the kit manufacturer […] (PerkinElmer, CIIIA). […] The data given testify that novel γ-carbolines of the general formula 1 are effective serotonin 5-HT6 receptor antagonists. Some of γ-carbolines of the general formula 1 have IC50<0.5 μM in the setting of cell function experiments (IC50—antagonist concentration blocking 5-HT6 receptors for 50%).

T1 sequence (P50406 whole entry): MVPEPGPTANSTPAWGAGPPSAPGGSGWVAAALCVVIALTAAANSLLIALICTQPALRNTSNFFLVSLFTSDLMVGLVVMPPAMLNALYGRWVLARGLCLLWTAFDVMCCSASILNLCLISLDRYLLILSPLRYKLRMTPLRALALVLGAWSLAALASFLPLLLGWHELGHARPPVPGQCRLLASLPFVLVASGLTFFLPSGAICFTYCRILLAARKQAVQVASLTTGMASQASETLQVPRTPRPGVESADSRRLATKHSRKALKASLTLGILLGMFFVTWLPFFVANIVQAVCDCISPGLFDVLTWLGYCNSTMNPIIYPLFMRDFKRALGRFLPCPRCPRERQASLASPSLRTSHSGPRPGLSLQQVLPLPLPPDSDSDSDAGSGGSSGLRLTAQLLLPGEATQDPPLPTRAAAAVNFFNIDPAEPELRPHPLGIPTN

Regarding `CN1CCc2c(c3cc(S(=O)(=O)c4ccccc4)ccc3n2C)C1.Cl` [1.1.1(4)•HCl, 2,5-dimethyl-8-(phenylsulfonyl)-2,3,4,5-tetrahydro-1H-γ-carboline hydrochloride], in the experiment with mice, the “duration of mice complete immobility” value is “decreased significantly”. In addition, in the experiment on male mice of BALB/c line, the “effect on amnesia caused by Scopolamine, passive avoidance” value is recorded as “decrease amnesia”. Further, the IC50 (in general, the concentration that inhibits the measured activity by half) in experiment [1] amounted to 78 nM.

In the case of `CN1CCc2[nH]c3ccc(S(=O)(=O)Nc4cccc(F)c4)cc3c2C1.Cl` [1.2.1(3)•HCl, 2-methyl-2,3,4,5-tetrahydro-1H-γ-carboline-8-sulfonic acid 3-fluorophenyl amide hydrochloride], the “duration of mice complete immobility” value in the experiment with mice was “decreased significantly”. Further, the “effect on amnesia caused by Scopolamine, passive avoidance” value in the experiment on male mice of BALB/c line was “decrease amnesia”. Also, the IC50 in experiment [1] stood at 15 nM.

The values above are taken from patent US20120071493A1, “SUBSTITUTED 8-SULFONYL-2,3,4,5-TETRAHYDRO-1H-GAMMA-CARBOLINES, LIGANDS AND PHARMACEUTICAL COMPOSITION; METHOD FOR THE PRODUCTION AND USE OF SAME” (priority 2009, published 2012).
